Test results reported in patent US12310975B2, “Modulators of BCL6 proteolysis and associated methods of use” (Arvinas Operations, Inc., priority 2019, dated 2025).

What was measured:
BCL6 [1] = molecular target: T1, BCL6 (Homo sapiens (Human), UniProt P41182); assay: BCL6 TR-FRET assay (BCL6-Avitag-Biotin / BCoR-Cy5 peptide); format: binding; conditions: read-out: IC50
Method in brief: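 After 30 min room-temperature preincubation of compound titrations with 2 nM biotinylated BCL6-Avitag, 100 nM Cy5-labelled BCoR peptide plus 2 nM Eu-streptavidin were added and TR-FRET read 2 h later. HEPES pH 7.5/125 mM NaCl buffer with Triton X, glutathione (or DTT) and BSA.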

BCL6 [2] = molecular target: T1, BCL6; assay: Immunofluorescence high content imaging of BCL6 degradation in T47D cells; format: cell-based; conditions: T47D
Method in brief: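 T47D cells were treated for 3 days at 37 °C with 11-point 3-fold dilutions of bifunctional degrader (final top 0.1 or 1 μM). BCL6 was detected by immunofluorescence after PFA fixation, with Hoechst and cell mask counterstains, and imaged at 10×, 4 fields/well.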

Row | SMILES | IC50 (BCL6 [1]) [nM] | Dmax (BCL6 [2]) [%]
1 | CNC(=O)COc1cc2cc(Nc3nc(N4CCN(C[C@H]5C[C@H](N6CCN(c7cccc8c7C(=O)N(C7CCC(=O)NC7=O)C8=O)CC6)C5)CC4)ncc3Cl)ccc2n(C(C)C)c1=O (stereo partly shown) [compound 537, 2-[(6-{[5-chloro-2-(4-{[(1r,3r)-3-{4-[2-(2,6-dioxopiperidin-3-yl)-1,3-dioxo-2,3-dihydro-1H-isoindol-4-yl]piperazin-1-yl}cyclobutyl]methyl}piperazin-1-yl)pyrimidin-4-yl]amino}-2-oxo-1-(propan-2-yl)-1,2-dihydroquinolin-3-yl)oxy]-N-methylacetamide] | < 10 | < 50
2 | CNC(=O)COc1cc2cc(Nc3nc(N4CCC(CN5CC(N6CCC(c7ccc8c(c7)C(=O)N(C7CCC(=O)NC7=O)C8=O)CC6)C5)CC4)ncc3Cl)ccc2n(C(C)C)c1=O (stereo not shown) [compound 538, 2-({6-[(5-chloro-2-{4-[(3-{4-[2-(2,6-dioxopiperidin-3-yl)-1,3-dioxo-2,3-dihydro-1H-isoindol-5-yl]piperidin-1-yl}azetidin-1-yl)methyl]piperidin-1-yl}pyrimidin-4-yl)amino]-2-oxo-1-(propan-2-yl)-1,2-dihydroquinolin-3-yl}oxy)-N-methylacetamide] | < 10 | ≥ 70
3 | CNC(=O)COc1cc2cc(Nc3nc(N4CCN(CC5CCC6(CC5)CN(c5c(F)ccc7c5C(=O)N(C5CCC(=O)NC5=O)C7=O)C6)CC4)ncc3Cl)ccc2n(C(C)C)c1=O (stereo not shown) [compound 539, 2-{[6-({5-chloro-2-[4-({2-[2-(2,6-dioxopiperidin-3-yl)-5-fluoro-1,3-dioxo-2,3-dihydro-1H-isoindol-4-yl]-2-azaspiro[3.5]nonan-7-yl}methyl)piperazin-1-yl]pyrimidin-4-yl}amino)-2-oxo-1-(propan-2-yl)-1,2-dihydroquinolin-3-yl]oxy}-N-methylacetamide] | < 10 | 50 to 70
4 | CNC(=O)COc1cc2cc(Nc3nc(N4CCN(CC5CCC6(CC5)CN(c5cc(F)cc7c5C(=O)N(C5CCC(=O)NC5=O)C7=O)C6)CC4)ncc3Cl)ccc2n(C(C)C)c1=O (stereo not shown) [compound 540, 2-{[6-({5-chloro-2-[4-({2-[2-(2,6-dioxopiperidin-3-yl)-6-fluoro-1,3-dioxo-2,3-dihydro-1H-isoindol-4-yl]-2-azaspiro[3.5]nonan-7-yl}methyl)piperazin-1-yl]pyrimidin-4-yl}amino)-2-oxo-1-(propan-2-yl)-1,2-dihydroquinolin-3-yl]oxy}-N-methylacetamide] | < 10 | ≥ 70
5 | CNC(=O)COc1cc2cc(Nc3nc(N4CCN(CC5CCC6(CC5)CN(c5ccc(F)c7c5C(=O)N(C5CCC(=O)NC5=O)C7=O)C6)CC4)ncc3Cl)ccc2n(C(C)C)c1=O (stereo not shown) [compound 541, 2-{[6-({5-chloro-2-[4-({2-[2-(2,6-dioxopiperidin-3-yl)-7-fluoro-1,3-dioxo-2,3-dihydro-1H-isoindol-4-yl]-2-azaspiro[3.5]nonan-7-yl}methyl)piperazin-1-yl]pyrimidin-4-yl}amino)-2-oxo-1-(propan-2-yl)-1,2-dihydroquinolin-3-yl]oxy}-N-methylacetamide] | < 10 | ≥ 70
